“And” between values parts separate entries of the source, which are not always exact repeats. Equal entries are not always repeated.
Columns and labels:
Assay type in all cases: cell-based
[1] = test system: Staphylococcus aureus (ATCC 25923); assay: disk diffusion assay (growth inhibition halo); settings: for inhibition diameter (in brackets), in presence of light: Petri dishes incubated in presence of light; for inhibition diameter (in brackets), in the dark: incubation in the dark; for activity of inhibition of S. aureus growth: preparative HPLC fractions redissolved in MeOH/H2O 75%, disk diffusion assay, Figure 3
Experimental: The antimicrobial activity of these extracts was tested against Gram-positive and Gram-negative bacteria, yeasts and fungi by the diffusion disk method. The bacteria tested were Staphylococcus aureus (ATCC 25923), Enterococcus faecium (ATCC 19434), Escherichia coli (ATCC 25922), Pseudomonas aeruginosa (ATCC 27853), Klebsiella pneumoniae (ATCC 13883), methicillin resistant S. aureus (MRSA, ATCC43300) and Bacillus subtilis 168. The yeasts tested were Candida albicans (MUCL 29800), Saccharomyces cerevisiae (MUCL 31497) and the fungus Aspergillus niger (IHEM 3415). Mueller-Hinton II culture medium was used for cultivating S.aureus, E. coli, P. aeruginosa and K. pneumoniae; Brain Heart infusion Broth for E. faecium; Yeast Peptone Dextrose Broth for C. albicans and A. niger and S. cerevisiae. Agar plates with the appropriate medium were inoculated from the glycerol stock culture and Petri dishes were incubated overnight at 37°C for bacteria and at 28°C during 48 hours for the other strains. Colonies or spores (forA. niger) were then resuspended in a sterile solution of NaCl 0.85% to obtain a OD600 between 0.08 and 0.1 at 600 nm (which corresponds to tube of 0.5 on McFarland scale). Sterile cotton buds were soaked with the suspension and the micro-organisms were spread onto the Petri dish. Five sterile disks of chromatography paper (Whatman 3MM) with a diameter of 6,0 mm were placed on the agar plate. Two disks were respectively used for positive (1 mg/ml kanamycin for S. aureus, B. subtilis, E. coli and K. pneumoniae; 25 mg/ml kanamycin for E. faecium; 0,01 mg/ml ciprofloxacin for P. aeruginosa; 20 and 0,01 mg/ml cycloheximide for A. niger and S. cerevisiae, respectively; 0,1 mg/ml nystatin for C. albicans) and negative (MeOH/H2O 75/25%) controls. The remaining disks were used to test the compound of interest in triplicate. On each disk, 10 µl were loaded on the paper disk in two steps (2 x 5 µl) letting the paper dry between the two loadings. The Petri dishes were then incubated as described above. The antimicrobial activity of compounds of interest was visualized by its growth inhibition halo. […] Table 1: Inhibition diameter of the crude methanol 75% extract of spray-dried powder of Scenedemus sp. S4 and freeze-dried powders of D. armatus S0
The injection volume was fixed at 100 µL, the sample temperature in the autosampler was 10°C and the column was thermostatized at 37°C. The effluent was monitored by a photodiode array detector (Waters 2998 PDA detector, detection range: 200-800 nm) and collected using an automatic fraction collector (Waters Fraction Collector III, volume fraction: 500 µl). The collected fractions were then dried by using a vacuum centrifuge (Speedvac vacuum concentrator Savant SPD-111V, Thermo Scientific) and redissolved in 500 µL of MeOH/H2O 75% (75/25 v/v) and assayed for their capacity to inhibit the growth of S. aureus (disk assay as described above). Several fractions were selected for their antibacterial activity and preparative purifications were then carried out to obtain higher quantities of these compounds to allow their identification and subsequently their characterization.
Preparative chromatography was carried out by using an AKTA explorer system (GE Healthcare) and a preparative reverse phase column (Nucleodur C18 Gravity, 5 µm particule size, length x internal diameter: 25 cm x 1 cm) The chromatogram was recorded at 3 different wavelengths: 230 nm, 430 nm and 650 nm. The volume injected was 2 ml and the flow rate fixed at 2 ml/min. The same buffers as those used during analytical separation were selected and the gradient adapted to the column volume. Fraction size was adapted in such a way that one peak corresponded to one collected fraction. These fractions were then dried with a vacuum centrifuge and redissolved in 500 µL of MeOH/H2O 75%. Figure 3 presents the chromatogram obtained at 430 nm. […]

S. aureus (ATCC25923) = assay: minimum inhibitory concentration by microdilution method; settings: 37°C, in the dark, 24 hours, Mueller-Hinton broth; 1:40 dilution factor of 58.03 µg/ml stock
Experimental: The minimum inhibitory concentration (MIC) of 13^2-hydroxy-methylchlorophyllide a for S. aureus was determined using the microdilution method. In a 48-well plate, 500 µl of Mueller-Hinton broth were placed in each well. Then, 500 µl of a dilute solution of 13^2-hydroxy-methylchlorophyllide a (stock solution in MeOH/H2O 75% diluted 5x by Mueller-Hinton broth) were added to the first well and serial 2-fold dilutions were made by transferring 500 µL from one well to the next. For the last well, 500 µl were discarded. A culture of S. aureus (ATCC25923) growing in exponential phase was diluted with sterile NaCl 0.85% (w/v) to obtain a bacterial suspension corresponding to 0.5 tube McFarland unit and then dispensed in 500 µl aliquots in the 48 well plate. After covering the 48-plate with its lid, it was incubated at 37°C under agitation and in the dark for 24 hours. The MIC was defined as the last dilution for which no visible bacterial growth was observed. The concentration of the active compound was determined on the basis of a calibration line obtained by injecting increasing volumes of a solution of pure chlorophyllide a standard on a reverse-phase HPLC column.

S. aureus [2] = assay: growth curve (OD600) of an early exponential culture after addition of compound; settings: 1x and 4x the MIC, directly after addition, in the dark
Experimental: To further characterize the antibacterial action of 13^2-hydroxy-methylchlorophyllide a, a S. aureus culture in its early exponential phase of growth was submitted to the action of the chlorophyllide derivative. 100 ml of Mueller-Hinton broth were inoculated with an overnight culture of S. aureus to obtain a bacterial density corresponding to an optical density at 600 nm (OD^600) = 0.05. This culture was then incubated at 37°C under orbital shaking (240 rpm) by using an Aquatron (Infors) shaker. Once the cells enter early exponential growth (OD^600= 0.2), the culture was subdivided into three 20 ml cultures. For two cultures, 13^2-hydroxy-methylchlorophyllide a solubilized in MeOH/H2O 75% was added to reach a final concentration equal to 1x and 4x the MIC, respectively. For the third culture (control culture), a corresponding volume of MeOH/H2O without any chlorophyllide compound was added. In Figure 7 the optical density as a function of time is presented. The addition of the compounds occurred after 75 minutes. […] OD^600 remained unchanged during the whole experiment. This observation supports the hypothesis that no bacterial cell lysis takes place and that the antibacterial activity of 13^2-derivative is either bacteriostatic or non-lytic bactericidal.

S. aureus [3] = assay: viable count (CFU per ml) after addition of compound; settings: 1 or 4 x MIC, in the dark
Experimental: To distinguish between these two antibacterial activities, the number of viable S. aureus were determined by counting the colonies forming units (CFU) per ml of culture before the addition of the chlorophyllide derivative (t=0 h) and after 2 and 4 hours. […] The negative control is represented in black, while cultures treated with 1x and 4xMIC of purified S fraction are hatched and dotted respectively. The data presented are the average values of three independent experiments.
For culture without addition of chlorophyllide derivative (negative control, only addition of MeOH/H2O 75%) S. aureus maintained its growth and CFU/ml increased. On the contrary, once 13^2-hydroxy-methylchlorophyllide a was added (1 or 4 x MIC value in MeOH/H2O 75%, final concentration), the number of CFU/ml decreased of at least four logarithmic steps (4 log10). This means that the chlorophyllide derivative killed, in the dark, more than 99.99% of the bacterial population. The same result was observed after 2 and 4 hours even if for this latter culture a slight return of bacterial growth was observed.

red blood cell = assay: sheep erythrocyte lysis assay; settings: after 120 min, at 4 x MIC, 37°C
Experimental: Activity of 13^2-hydroxy-methylchlorophyllide a on red blood cell was determined using a sheep erythocyte lysis assay. The lytic action was assessed on defibrinated sheep blood (bioTRADING). The erythrocytes were harvested by centrifugation (1500 rpm, 5 min) and washed 10 times with phosphate buffer saline (PBS). The red blood cells were then diluted 25 times with PBS and washed two more times to obtain a colourless supernatant after a centrifugation at 3000 g for 5 minutes. Samples of 1 ml of red blood cells (25 times diluted) are transferred in Eppendorf tubes and the 13^2-hydroxy-methylchlorophyllide a, dissolved in MeOH/H2O 75% (v/v), was added to obtain a final concentration equal to 1x or 4x MIC. The tubes are then incubated at 37°C at 300 rpm by using a thermomixer HC (Starlab) and 100 µl samples were withdrawn at time 0, 5, 10, 15, 30, 60 and 120 min. […]
The erythrocyte lysis was highlighted by the presence of haemoglobin in the supernatant and quantified by measuring the absorbance of the supernatant at 540 nm by means of a microplate reader Tecan infinite200 pro. The percentage lysis was calculated as follows: % lysis = (AChl^540 −APBS^540)/(ASDS 0.1%^540) × 100 [formula] wherein AChl is the absorbance of the tested compound, APBS is the measured absorbance of the PBS solution and ASDS is the absorbance of the SDS solution (positive control), each at the wavelength of 540 nm. […]

With “13^2-hydroxy-chlorophyllide a [listing 1 of 2 here]” the “inhibition diameter (in brackets), in presence of light” value (shortened to “inhibition diameter … of light”) ([1]; disk diameter 6,0 mm) was 0.86 cm and the “inhibition diameter (in brackets), in the dark” value ([1]; disk diameter 6,0 mm) was 0.69 cm.
With “13^2-hydroxy-chlorophyllide a [listing 2 of 2 here]” the “activity of inhibition of S. aureus growth” value [1] was “active”.
With “13^2-hydroxy-chlorophyllide b [listing 1 of 2 here]” the “inhibition diameter … of light” value ([1]; disk diameter 6,0 mm) was 0.70 cm and the “inhibition diameter (in brackets), in the dark” value ([1]; disk diameter 6,0 mm) was 0.72 cm.
With “13^2-hydroxy-chlorophyllide b [listing 2 of 2 here]” the “activity of inhibition of S. aureus growth” value [1] was “active”.
With “13^2-hydroxy-methylchlorophyllide a [listing 1 of 2 here]” the “inhibition diameter … of light” value ([1]; disk diameter 6,0 mm) was 1.12 cm, the “inhibition diameter (in brackets), in the dark” value ([1]; disk diameter 6,0 mm) was 0.80 cm and the “activity of inhibition of S. aureus growth” value ([1]; listed as S) was “most active”. The MIC (S. aureus (ATCC25923)) was 1.45 µg/mL, the “S. aureus growth (OD600)” value (S. aureus [2]) was “growth was stopped” and the “decrease of the number of CFU/ml” value (S. aureus [3]; after 2 and 4 hours) was at least 4 log10. For the same compound, the bacterial population killed (S. aureus [3]) was “more than 99.99%” and the “percentage of red blood cell hemolysis” value (red blood cell) was “lower than 10%”.
“13^2-hydroxy-methylchlorophyllide a [listing 2 of 2 here]” was tested, and the “activity of inhibition of S. aureus growth” value [1] was “active”.
For 13^2-hydroxy-methylchlorophyllide b, the “inhibition diameter … of light” value ([1]; disk diameter 6,0 mm) was 0.87 cm and the “inhibition diameter (in brackets), in the dark” value ([1]; disk diameter 6,0 mm) was 0.73 cm.
13^2-hydroxy-methylchlorophyllide b [K] was tested, and the “activity of inhibition of S. aureus growth” value [1] was “active”.
For `NC[C@H]1O[C@H](O[C@H]2[C@H](O)[C@@H](O[C@H]3O[C@H](CO)[C@@H](O)[C@H](N)[C@H]3O)[C@H](N)C[C@@H]2N)[C@H](O)[C@@H](O)[C@@H]1O` [Positive control, kanamycin, reference compound], the “Inhibition diameter, Positive control” value ([1]; positive control disk on the plate of the named extract (1 mg/ml kanamycin for S. aureus), 10 µl per disk, disk diameter 6,0 mm) was 2.10 cm and 1.62 cm.
`C=CC1=C(C)C2=NC1=CC1=NC(=Cc3[n-]c4c(c3C)=C([O-])C(C(=O)OC)C=4C3=NC(=C2)C(C)C3CCC(=O)OC)C(CC)=C1C.[Mg+2]` (centres unmarked) [methyl chlorophyllide a, reference compound] was tested, and the “inhibition diameter (in brackets), in the dark” value ([1]; disk diameter 6,0 mm) was 0.60 cm.

— patent publication EP4311550A1, “CHLOROPHYLLIDE DERIVATIVES FOR USE IN THE PREVENTION OR TREATMENT OF BACTERIAL INFECTION” (Université de Liège, priority 2022, dated 2024)
